These results are taken from US12084709B2, “Screening method” (Mars, Incorporated, priority 2018, dated 2024).

Structures are written as SMILES.

For this assay, the system named is Porphyromonas macacae JN713359. Briefly: mBB fluorescent C-S lyase / VSC production method with whole bacteria. As to conditions: 0.12% CHX treatment; relative to control. The class given is cell-based. How it is done:
The C-S lyase activity was measured in order to quantitate VSC production by the bacteria. This was conducted by using monobromobiname, a fluorescent probe for thiol. The bacteria were washed and resuspended in Tris buffer (pH 8.5) at OD=1.0. The 250 μL reaction mix contained 4 mM benzylcysteine, 100 μM monobromobimane, 10 μM pyridoxal 5′-phosphate, 50 μL of the bacteria suspension and was made up to 250 μL with tris buffer (pH 8.5). The mix was incubated anaerobically for 45 minutes at 37° C. The C-S lyase activities were determined based on fluorescence at 490 nm (em) upon excitation at 385 nm (ex). All measurements were performed in biological duplicate with each repeated in technical triplicates, creating total of 6 data points per strain. Blank measurements (containing buffer instead of crude extract) were used to correct the values derived from the substrate. The standard curve was measured using Benzyl mercaptan at 8-128 μM. The protein concentration of the bacteria suspension was determined by means of a commercially available BCA kit in accordance with the manufacturer's method. The specific C-S lyase activity was calculated by dividing the increase in fluorescence equivalent to Benzyl mercaptan concentration by the total protein content of the suspension in mg and expressed as unit which was defined as “nM Benzyl mercaptan release/μg protein/minute”. […]

`[H]/N=C(\N/C(=N/[H])NCCCCCCNC(=N)NC(=N)Nc1ccc(Cl)cc1)Nc1ccc(Cl)cc1` [CHX, Chlorhexidine, reference compound]: the “quantity of VSC produced as the control” value is recorded as 25%.
